Laboratory results reported in patent publication US4590202A, “N-(2-imidazolidinylidene)-5H-dibenzo[a,d]cyclohepten-5-amine compounds and α2 -adrenergic antagonistic uses thereof” (Merck & Co., Inc., priority 1984, dated 1986).

Columns and labels:
vascular smooth muscle = assay: inhibition of calcium induced contraction of vascular smooth muscle; parameters: species or system male Sprague-Dawley rats; details: 10^-7 M; contraction induced by 1.0 mM calcium chloride in depolarized rat vascular smooth muscle
Procedure: The property may be observed in a test in which segments of vascular smooth muscle obtained from male Sprague-Dawley rats are suspended in physiological salt solution in a tissue bath instrumented for recording contractions. After the tissue has been equilibrated, washed in calcium-free physiological salt solution and then depolarized, 1.0 mM calcium chloride is re-added to induce contraction. After the contraction has reached a plateau, tissues are washed and a test compound or vehicle is added to determine the effect on a second contraction achieved by the above cyclic protocol. From measuring the initial contraction as well as the second contraction in the presence of the test compound, the extent of inhibition may be calculated.

α2 -adrenoreceptor = assay: neurogenic contractions of rat vas deferens (α2-adrenergic activity); details: electrically stimulated rat vas deferens
Procedure: (§1) In such determination, vas deferens of rat is suspended under tension between two platinum electrodes of an organ bath containing Tyrode's solution and contractile responses to electrical stimulation recorded. Agonist drug is added and EC50 values determined. After wash out, an antagonist drug is added and after a suitable period of contact with the tissue, the EC50 values of agonist in presence of antagonist are similarly determined.
(§2) These properties indicate suitability for use as an antidepressant.

α1 -adrenoreceptor = assay: neurogenic contractions of rat vas deferens (α1-adrenergic activity); details: electrically stimulated rat vas deferens
Procedure: as §1, §2

| SMILES | inhibition at 0.1 µM (vascular smooth muscle) [%] | effect on neurogenic contractions of the rat vas deferens (α2 -adrenoreceptor; antagonism by rauwolscine) | antagonism of the inhibition of contractions produced by clonidine (α2 -adrenoreceptor; agonist clonidine) | antagonism of the response to methoxamine (α1 -adrenoreceptor; agonist methoxamine) | effect on neurogenic contractions of the rat vas deferens when given alone (α1 -adrenoreceptor; compound alone) |
| --- | --- | --- | --- | --- | --- |
| C1=Cc2ccccc2C(N=C2NCCN2)c2ccccc21.I [N-(2-Imidazolidinylidene)-5H-dibenzo[a,d]cyclohepten-5-amine Hydroiodide] | 56 | inhibit neurogenic contractions of the rat vas deferens which was antagonized by rauwolscine | – | – | – |
| Brc1ccc2c(c1)C(N=C1NCCN1)c1ccccc1C=C2.I (stereo not drawn) [N-(2-Imidazolidinylidene)-3-bromo-5H-dibenzo[a,d]cyclohepten-5-amine Hydroiodide] | 40 | – | antagonized the inhibition of contractions produced by clonidine | antagonized the response to methoxamine with a similar order of potency | enhanced the neurogenic contractions of the rat vas deferens |
